In ChEMBL document CHEMBL1150521, “2-NAP: a selective, hydrophilic, non-peptide CCKA - receptor antagonist derived from the cholecystokinin C-terminal dipeptide” (Bioorg Med Chem Lett, 1993):
The source made the active and inactive calls. The calls are words filed in the database; no cut-off is given here. Residues, ends and D or L forms follow the SMILES beside them. *: point of attachment. Boc = CC(C)(C)OC(=O)*

What was measured:
[1] = molecular target: T1, Cholecystokinin receptor type A (Cavia porcellus) (UniProt Q63931); experiment: Binding affinity for Cholecystokinin type A receptor in Guinea-Pig gall bladder; format: tissue-based
T1 sequence (whole entry): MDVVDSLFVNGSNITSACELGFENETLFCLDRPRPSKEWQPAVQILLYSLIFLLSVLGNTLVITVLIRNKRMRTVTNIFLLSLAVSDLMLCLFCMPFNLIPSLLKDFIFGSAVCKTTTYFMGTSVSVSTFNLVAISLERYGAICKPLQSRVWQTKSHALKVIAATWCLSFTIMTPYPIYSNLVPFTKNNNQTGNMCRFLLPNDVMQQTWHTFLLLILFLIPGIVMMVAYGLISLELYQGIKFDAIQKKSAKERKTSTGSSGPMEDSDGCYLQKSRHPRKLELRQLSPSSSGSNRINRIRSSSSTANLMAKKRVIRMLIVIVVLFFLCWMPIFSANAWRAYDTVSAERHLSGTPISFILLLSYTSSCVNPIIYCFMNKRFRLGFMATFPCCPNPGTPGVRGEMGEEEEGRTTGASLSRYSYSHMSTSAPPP

[2] = Compound was evaluated for partition coefficient using chloroform/buffer at pH 7.4 and 280 nm; format: physicochemical; settings: octanol/water
[3] = molecular target: T2, Gastrin/cholecystokinin type B receptor (Mus musculus, UniProt P56481); experiment: Compound was evaluated for its affinity against Cholecystokinin type B receptor in mouse cerebral cortex; format: tissue-based
T2 sequence (P56481 whole entry): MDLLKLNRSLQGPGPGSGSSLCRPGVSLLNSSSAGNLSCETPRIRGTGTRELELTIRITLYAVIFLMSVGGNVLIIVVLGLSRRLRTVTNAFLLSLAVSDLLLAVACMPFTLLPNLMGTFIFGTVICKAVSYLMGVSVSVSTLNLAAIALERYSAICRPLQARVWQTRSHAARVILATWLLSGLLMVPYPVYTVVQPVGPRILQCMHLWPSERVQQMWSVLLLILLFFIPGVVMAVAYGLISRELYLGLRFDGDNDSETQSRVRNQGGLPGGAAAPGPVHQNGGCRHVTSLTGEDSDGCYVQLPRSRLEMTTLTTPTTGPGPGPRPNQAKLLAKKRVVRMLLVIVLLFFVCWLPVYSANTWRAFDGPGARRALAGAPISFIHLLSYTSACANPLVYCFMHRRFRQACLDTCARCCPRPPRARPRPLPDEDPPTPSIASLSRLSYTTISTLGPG

[4] = Compound was evaluated for partition coefficient using chloroform/buffer at pH 7.4 and 254 nm; format: physicochemical; settings: octanol/water
[5] = molecular target: T3, Gastrin/cholecystokinin type B receptor (Mus musculus) (UniProt P56481); experiment: Efficiency against CCKB/Gastrin receptor for stimulation of gastric acid secretion in lumen-perfused mouse stomach: activity measured as midpoint agonist concentration-effect curve parameter; inactive at the limits of solubility, u sually 10e-4M.; format: functional, tissue-based
T3 sequence (whole entry): T2 sequence (P56481 whole entry)

[6] = molecular target: T3, Gastrin/cholecystokinin type B receptor (Mus musculus); experiment: Maximum acid secretion obtained at 10e -5 M: values expressed as percentage of the maximum response to pentagastrin (n=4/6) in mouse stomach at CCKB/Gastrin receptor; inactive at the limits of solubility, usually 10e-4 M.; format: functional, tissue-based
[7] = molecular target: T4, Cholecystokinin receptor type A (Cavia porcellus, UniProt Q63931); experiment: In vitro affinity against Cholecystokinin type A receptor in guinea pig pancreatic cell
T4 sequence (Q63931 whole entry): T1 sequence (whole entry)

[8] = molecular target: T1, Cholecystokinin receptor type A (Cavia porcellus); experiment: Affinity at Cholecystokinin type A receptor in guinea pig gall bladder; inactive at the limits of solubility, usually 10e-4 M.; format: tissue-based
[9] = molecular target: T1, Cholecystokinin receptor type A (Cavia porcellus); experiment: Compound was evaluated for its affinity at Cholecystokinin type A receptor in Guinea-Pig gallbladder; inactive at the limits of solubility, usually 10e-4 M.
[10] = molecular target: T3, Gastrin/cholecystokinin type B receptor (Mus musculus); experiment: Efficiency against CCKB/Gastrin receptor for stimulation of gastric acid secretion in lumen-perfused mouse stomach: activity measured as midpoint agonist concentration-effect curve parameter; format: functional, tissue-based
[11] = molecular target: T3, Gastrin/cholecystokinin type B receptor (Mus musculus); experiment: Maximum acid secretion obtained at 10e -5 M: values expressed as percentage of the maximum response to pentagastrin (n=4/6) in mouse stomach at CCKB/Gastrin receptor; format: functional, tissue-based
[12] = molecular target: T1, Cholecystokinin receptor type A (Cavia porcellus); experiment: Compound was evaluated for its affinity at Cholecystokinin type A receptor in Guinea-Pig gall bladder; format: tissue-based
[13] = molecular target: T1, Cholecystokinin receptor type A (Cavia porcellus); experiment: Compound was evaluated for its affinity at Cholecystokinin type A receptor in Guinea-Pig gall bladder; inactive at 10e-4 M; format: tissue-based
[14] = molecular target: T1, Cholecystokinin receptor type A (Cavia porcellus); experiment: Compound was evaluated for its affinity at Cholecystokinin type A receptor in Guinea-Pig gallbladder

O=C(O)C[C@H](NS(=O)(=O)c1ccc2ccccc2c1)C(=O)NCCCc1ccccc1
pKB [1]: 7

O=C(O)C[C@H](NS(=O)(=O)c1ccc2ccccc2c1)C(=O)NCCc1ccccc1
logD [2]: -0.91
Ki [3]: 69.2 µM
logD [4]: -0.91
p[A50] [5]: inactive
Max response [6]: inactive
Ki [7]: 0.355 µM
pKB [8]: 6.5

O=C(O)C[C@H](NS(=O)(=O)c1ccc2ccccc2c1)C(=O)NCCc1ccc(F)cc1
pKB [1]: 6.6

COc1ccc(S(=O)(=O)N[C@@H](CC(=O)O)C(=O)NCCc2ccccc2)cc1
pKB [8]: inactive

CC(C)(C)OC(=O)N[C@@H](CC(=O)O)C(=O)NCCc1ccccc1
pKB [9]: inactive
p[A50] [5]: inactive
Max response [6]: inactive

O=C(O)C[C@H](NS(=O)(=O)c1cccc2ccccc12)C(=O)NCCc1ccccc1
p[A50] [5]: inactive
Max response [6]: inactive
pKB [8]: inactive

O=C(O)CC[C@H](NS(=O)(=O)c1ccc2ccccc2c1)C(=O)NCCc1ccccc1
pKB [1]: 6.1

O=C(O)C[C@H](NS(=O)(=O)c1ccccc1)C(=O)NCCc1ccccc1
pKB [8]: inactive

NC(=O)[C@H](Cc1ccccc1)NC(=O)[C@H](CC(=O)O)NC(=O)c1ccc2ccccc2c1
p[A50] [10]: 5
Max response [11]: 100%
pKB [8]: inactive

CN1C(=O)[C@@H](NC(=O)c2cc3ccccc3[nH]2)N=C(c2ccccc2)c2ccccc21 [DEVAZEPIDE]
logD [2]: 4.1
logD [4]: 4.16

COc1ccc2cc(S(=O)(=O)N[C@@H](CC(=O)O)C(=O)NCCc3ccccc3)ccc2c1Cl
pKB [1]: 6.5

NC(=O)[C@H](Cc1ccccc1)NC(=O)[C@H](CC(=O)O)NS(=O)(=O)c1cccc2ccccc12
p[A50] [10]: 4.6
Max response [11]: 30%
pKB [8]: inactive

O=C(O)C[C@H](NS(=O)(=O)CCCc1ccccc1)C(=O)NCCc1ccccc1
pKB [8]: inactive

NC(=O)[C@H](Cc1ccccc1)NC(=O)[C@H](CC(=O)O)NS(=O)(=O)c1ccc2ccccc2c1
p[A50] [10]: 5.6
Max response [11]: 96%
pKB [8]: inactive

NS(=O)(=O)c1ccc(CCNC(=O)[C@H](CC(=O)O)NS(=O)(=O)c2ccc3ccccc3c2)cc1
pKB [1]: 5

CC(C)C[C@H](NC(=O)[C@H](Cc1c[nH]c2ccccc12)NC(=O)OC(C)(C)C)C(=O)N[C@@H](CC(=O)O)C(=O)N[C@@H](Cc1ccccc1)C(N)=O (Boc-WLDF-NH2)
pKB [12]: 5.1
p[A50] [10]: 8.6
Max response [11]: 100%

O=C(O)C[C@@H](NS(=O)(=O)c1ccc2ccccc2c1)C(=O)NCCc1ccccc1
pKB [1]: 5.9

O=C(O)C[C@H](NS(=O)(=O)c1ccc(Cl)c(Cl)c1)C(=O)NCCc1ccccc1
pKB [1]: 5.8

COc1cc2cc(S(=O)(=O)N[C@@H](CC(=O)O)C(=O)NCCc3ccccc3)ccc2c(Cl)c1OC
pKB [1]: 6.2

COc1ccc2cc(S(=O)(=O)N[C@@H](CC(=O)O)C(=O)NCCc3ccccc3)ccc2c1
pKB [1]: 6.6

O=C(O)C[C@H](NS(=O)(=O)/C=C/c1ccccc1)C(=O)NCCc1ccccc1
pKB [1]: 6.3

O=C(O)C[C@H](NS(=O)(=O)Cc1ccccc1)C(=O)NCCc1ccccc1
pKB [8]: inactive

CC(C)(C)OC(=O)N[C@@H](CC(=O)O)C(=O)N[C@@H](Cc1ccccc1)C(N)=O (Boc-Asp-Phe-NH2)
p[A50] [10]: 5.7
pKB [13]: inactive
Max response [11]: 100%

COc1ccc(CCNC(=O)[C@H](CC(=O)O)NS(=O)(=O)c2ccc3ccccc3c2)cc1
pKB [1]: 6

O=C(O)C[C@H](NS(=O)(=O)CCc1ccccc1)C(=O)NCCc1ccccc1
pKB [1]: 5.5

Cc1ccc(S(=O)(=O)N[C@@H](CC(=O)O)C(=O)NCCc2ccccc2)cc1
pKB [8]: inactive

O=C(O)C[C@H](NC(=O)c1ccc2ccccc2c1)C(=O)NCCc1ccccc1
p[A50] [5]: inactive
Max response [6]: inactive
pKB [14]: 5.6

O=C(O)CC[C@@H](NS(=O)(=O)c1ccc2ccccc2c1)C(=O)NCCc1ccccc1
pKB [8]: inactive

O=C(O)C[C@H](NS(=O)(=O)Cc1ccc2ccccc2c1)C(=O)NCCc1ccccc1
pKB [1]: 5.4
